The results in this text go back to PubChem BioAssay (NCI).

What all share (assay): DTP human tumour cell line panel, 48 h
The test system of test [1] is RPMI-8226 leukemia.
For test [2], the system named is CCRF-CEM leukemia.
In test [3] the test system is HS 578T breast.
The test system of test [4] is OVCAR-5 ovarian.
In test [5] the test system is A498 renal.
Test [6] relates to NCI/ADR-RES ovarian.
Test [7] has as its system UACC-257 melanoma.
Test [8] has as its system HT29 colon.
In test [9] the test system is PC-3 prostate.
For test [10], the system named is OVCAR-3 ovarian.

Molecules are shown by their SMILES.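 Following 48 hours of exposure in 96-well plates, responses at five concentrations were used to interpolate endpoints linearly. GI50 is the concentration that inhibits growth by half. TGI denotes the concentration required for complete inhibition of growth.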 Where only a bound is given, the exact number is not on record here.

As to `COc1ccc2nc(-c3ccccc3)cc(Nc3cccc(C(C)=O)c3)c2c1`, the GI50 in [1] was 33.2 µM; in [2] it was more than 100 µM; in test [3] it was 10.5 µM; in [4], 13.1 µM; in test [5], 2.42 µM; in test [6], 4.89 µM. The results for the GI50 in test [7], in test [8] and in test [9] were 18.3 µM, 3.67 µM and 21.5 µM, respectively. The TGI in test [1] is more than 100 µM; in test [2], more than 100 µM; in [3], 35.6 µM; in test [4], 29.9 µM; in [5], 15 µM; in test [6], 34.1 µM. Also, the TGI in test [7] is 78.7 µM; in [8], more than 100 µM; in test [9], 50.6 µM.

On to `O=c1c2ccccc2nc(-c2ccccc2Cl)n1-c1nnc(C(F)(F)F)s1`, for which the GI50 was 2.26 µM in test [1]; 3.13 µM in test [2]; 2.38 µM in test [3]; 4.33 µM in test [4]; 3.25 µM in test [10]; 1.77 µM in test [5]. Also, the GI50 is 3.13 µM in test [6], 3.18 µM in test [8] and 2.76 µM in [9]. Also, the TGI is 8.13 µM in [1]; 40.7 µM in test [2]; 9.3 µM in test [3]; 43.8 µM in test [4]; 11.4 µM in [10]; 5.07 µM in [5]. In addition, the values for the TGI in test [6], in test [8] and in [9] were more than 100 µM, 13.6 µM and 14.1 µM, respectively.

`COC(=O)C1(C)CC2C(C)(CCC3(C)C4=CC=C5C(=CC(=O)C(O)=C5C)C4(C)CCC23C)CC1O` (configuration not stated): the TGI came out at 0.538 µM in test [2]; 14.4 µM in test [3]; 3.32 µM in test [4]; 2.24 µM in test [10]; 3.51 µM in [5]; 2.93 µM in [6]. In addition, the values for the TGI in [7], in [8] and in [9] were 4.28 µM, 2.53 µM and 3.12 µM, respectively.

As to `O=C(COc1ccc(OCC(=O)N2C(=O)CN(c3ccccc3)C2=S)cc1)N1C(=O)CN(c2ccccc2)C1=S`, the GI50 in [1], in [3], in test [4], in [10], in test [5] and in test [6] was more than 25 µM throughout. Moreover, the GI50 in test [7] and in test [8] was more than 25 µM in each case. Also, the TGI in test [1], in [3], in [4], in test [10], in test [5] and in test [6] was more than 100 µM each time. The TGI in test [7], in test [8] and in test [9] was more than 100 µM throughout.

As to `O=C(Nc1cccc(-n2cc(-c3ccncc3)c(-c3ccc(O)c(Cl)c3)n2)c1)c1cc(C(F)(F)F)cc(C(F)(F)F)c1`, the GI50 is 3.31 µM in [1]; 2.21 µM in test [2]; 5.19 µM in test [3]; 8.33 µM in test [4]; 9.2 µM in test [5]; 4.72 µM in test [6]. The GI50 in [7] was 16.1 µM; in test [8] it was 5.15 µM; in test [9], 2.17 µM. Further, the TGI was 33.1 µM in test [1]; more than 50 µM in [2]; more than 50 µM in test [3]; 37.7 µM in test [4]; more than 50 µM in test [5]; more than 50 µM in [6]. Besides, the TGI in test [7] was more than 50 µM; in test [8] it was 31.4 µM; in test [9], more than 50 µM.

On to `C[C@H](CS)C(=O)N1c2ccccc2C[C@H]1C(=O)O`, for which the TGI in [2], in test [3], in [4], in test [10], in test [5] and in test [6] was more than 100 µM in each case. For the same compound, the TGI in test [7], in test [8] and in [9] was more than 100 µM throughout.

For `Cc1ccc(/C=C/c2c(C(=O)/C=C/c3ccc(Cl)cc3)c(C)nc3ccccc23)cc1`, the GI50 in test [1] was 2.13 µM; in [3], 2.75 µM; in [4], 2.16 µM; in test [10], 1.84 µM; in test [5], 1.77 µM; in test [6], 1.99 µM. Moreover, the GI50 is 2.15 µM in test [7], 2.05 µM in test [8] and 2.2 µM in test [9]. In addition, the TGI in test [1] was determined as 5.95 µM; in test [3], 8.66 µM; in test [4], 5.86 µM; in test [10] it was 3.51 µM; in [5], 3.28 µM; in [6], 4.45 µM. For the same compound, the values for the TGI in test [7], in test [8] and in [9] were 4.8 µM, 14.9 µM and 6.42 µM, respectively.

For the compound `O=CNc1ccc(S(=O)(=O)c2ccc(NC=O)cc2)cc1`, the TGI in [1], in test [2], in [3], in test [4], in test [10] and in test [6] was more than 100 µM throughout. Further, the TGI in test [7], in test [8] and in [9] was more than 100 µM in each case.

In the case of `O=C1c2ccccc2C(=O)c2c1ccc1c(=O)n(-c3ccccc3C(F)(F)F)nnc21`, the GI50 was 2.03 µM in test [2]; 3.04 µM in test [3]; 2.19 µM in [4]; 0.315 µM in [10]; 1.76 µM in test [5]; 2.05 µM in test [6]. For the same compound, the GI50 is 1.71 µM in [7], 3.43 µM in test [8] and 2.2 µM in test [9]. Besides, the TGI was more than 100 µM in test [2]; more than 100 µM in [3]; 6.01 µM in test [4]; 1.42 µM in [10]; 3.65 µM in test [5]; 9.23 µM in test [6]. Also, the TGI was 3.51 µM in test [7], more than 100 µM in test [8] and more than 100 µM in test [9].

In the case of `CN(C)C=NC1CCC(C(C)(C)C)CC1` (configuration not stated), the TGI was found to be 42 µM in [3]; 37.2 µM in test [4]; 28.8 µM in test [10]; 49.6 µM in test [5]; 32.8 µM in test [6]; 29.1 µM in test [7]. Besides, the results for the TGI in [8] and in [9] were 21.6 µM and 30.3 µM, respectively.

`COc1cc(/C=C/C(=O)/C=C/c2cc3ccc(Cl)cc3n(Cc3ccccc3)c2=O)ccc1O`: the GI50 in test [1] was 1.23 µM; in test [2], 1.4 µM; in test [3] it was 3.79 µM; in test [4] it was 2.65 µM; in test [10], 0.71 µM; in test [6], 2.86 µM. Further, the GI50 was 2.06 µM in test [7], 0.424 µM in test [8] and 1.92 µM in test [9]. Moreover, the TGI is 10.9 µM in test [1]; more than 100 µM in test [2]; 62 µM in test [3]; 5.78 µM in [4]; 2.43 µM in [10]; more than 100 µM in test [6]. Further, the TGI in test [7] stood at 4.83 µM; in test [8], 1.68 µM; in [9], 5.6 µM.

As to `COc1ccccc1/C=C/C1=C(C)CCC(c2ccccc2OC)C1C` (configuration not stated), the GI50 in [1] was 0.0449 µM; in test [2], 0.0684 µM; in test [3], 0.112 µM; in test [4], 0.403 µM; in test [5] it was 0.0923 µM; in test [6], 0.105 µM. The figures for the GI50 in [8] and in [9] were 0.167 µM and 0.392 µM, respectively. In addition, the total growth inhibition concentration (TGI) is more than 100 µM in test [1]; more than 100 µM in [2]; 0.708 µM in [3]; more than 68.2 µM in test [4]; 0.534 µM in test [5]; more than 89.8 µM in test [7]. In [9], the TGI is more than 100 µM.

Regarding `O=C(O)c1c(Cl)c(Cl)c(Cl)c(Cl)c1C(=O)Nc1ccc2cn[nH]c2c1`, the TGI in test [1], in test [3], in test [4], in test [10], in test [5] and in [6] was more than 100 µM each time. For the same compound, the TGI in [7], in test [8] and in [9] was more than 100 µM throughout.

`CCCCCCCCCCCCCCCCCCOc1ccccc1CC(=O)OCC[N+](CC)(CC)CC`: the GI50 was 1.48 µM in test [2]; 1.34 µM in [3]; 2 µM in [4]; 1.73 µM in test [10]; 2.13 µM in [5]; 7.58 µM in [6]. The GI50 in [7] is 1.42 µM; in test [8], 1.63 µM; in test [9], 1.2 µM. Further, the TGI stood at 13.1 µM in test [2]; 4.55 µM in test [3]; 8.52 µM in test [4]; 6.33 µM in test [10]; 8.49 µM in test [5]; 17.5 µM in test [6]. The TGI in test [7] was found to be 5.1 µM; in [8] it was 8.58 µM; in [9], 3.18 µM.

With `O=Cc1c(-c2ccccc2)[nH]c2ccccc2c1=O`, the TGI in test [1] is 85.6 µM; in test [3] it was 98.9 µM; in [4] it was more than 100 µM; in [10] it was more than 100 µM; in test [5] it was more than 100 µM; in test [6] it was more than 100 µM. Further, the TGI in test [7], in test [8] and in [9] was more than 100 µM each time.

For `N#Cc1ccccc1C#C/C=C\C#CC#C/C=C\C#Cc1ccccc1C#N`, the GI50 in test [1] is 4.11 µM; in [2] it was 4.95 µM; in test [3], 5.38 µM; in [4], 11.4 µM; in test [10], 4.55 µM; in [6], 18.5 µM. The GI50 is 52.7 µM in test [7], 3.39 µM in test [8] and 19.6 µM in test [9]. For the same compound, the TGI in test [1] is more than 100 µM; in test [2] it was more than 100 µM; in test [3], 78.8 µM; in test [4], 26.5 µM; in test [10], 21.4 µM; in test [6], 68.2 µM. Further, the TGI in test [7] was more than 100 µM; in test [8], 94.4 µM; in test [9] it was more than 100 µM.

Consider `O=C1C=CC(=Nc2cccc3c(N=C4C=CC(=O)O4)cccc23)O1`, for which the TGI was 58.2 µM in test [1]; more than 100 µM in test [3]; more than 100 µM in [4]; more than 100 µM in [10]; more than 100 µM in test [5]; more than 100 µM in test [6]. Also, the figures for the TGI in test [7], in test [8] and in test [9] were 55.6 µM, more than 100 µM and more than 100 µM, respectively.

Turning to `COc1ccc(C(=O)O[C@H]2[C@H](O[C@H]3[C@@H](O)COC(O[C@H]4C[C@H]5[C@@H]6CC=C7C[C@@H](O)CC[C@]7(C)[C@H]6CC[C@]5(C)[C@H]4[C@H](C)C(=O)CCC(C)C)[C@@H]3OC(C)=O)OC[C@@H](O)[C@@H]2O)c(C)c1` (some centres not stated), the GI50 was less than 0.01 µM in test [2]; less than 0.01 µM in test [3]; 0.103 µM in test [4]; 11.1 µM in test [10]; less than 0.01 µM in [5]; 8.48 µM in [6]. The GI50 is 0.0196 µM in test [7], 0.0712 µM in test [8] and less than 0.01 µM in [9]. Moreover, the TGI in [2] was 0.13 µM; in test [3] it was 0.0282 µM; in [4], 26.9 µM; in [10], 28.9 µM; in test [5], less than 0.01 µM; in [6], 86.1 µM. Moreover, the TGI in test [7] is 0.0621 µM; in [8] it was 21.6 µM; in test [9], 2.14 µM.

For `CCN(CC)CCN1C(=O)C2C3C(=O)CC(C)(CC3C)C2C1=O` (configuration not stated), the GI50 in [2], in test [3], in test [4], in test [5], in test [6] and in test [7] was more than 100 µM in each case. Also, the GI50 in [8] and in test [9] was more than 100 µM in each case. Further, the TGI in test [2], in [3], in test [4], in test [5], in test [6] and in test [7] was more than 100 µM each time. Also, the TGI in [8] and in test [9] was more than 100 µM throughout.
